pIC50: −log10 of the molar value.
What was measured:
TBK1 = TBK1 (Homo sapiens (Human), UniProt Q9UHD2); experiment: TBK1 TR-FRET enzymatic assay; details: read-out: TBK1 IC50, 2x Km ATP, geometric mean of at least four determinations
Experimental: Enzymatic activity of IKKε and TBK1 was measured using a homogeneous time resolved fluorescence resonance energy transfer (TR-FRET) assay that monitors enzyme dependent phosphorylation of a biotinylated serine/threonine peptide substrate. […] TBK1 and IKKε were expressed and purified as full length recombinant proteins. Detection reagents for the assay were purchased from Cisbio. […] After an assay reaction time of 240 minutes at 25° C., reactions were terminated with EDTA.
All IC50 values represent geometric mean values of a minimum of four determinations.

IKKε = IKKε (Homo sapiens (Human), UniProt Q14164); experiment: IKKε TR-FRET enzymatic assay; type: biochemical; details: 2x Km ATP, geometric mean of at least four determinations, read-out: IKKe IC50
hJAK2 = hJAK2 (Homo sapiens (Human), UniProt O60674); experiment: hJAK2 LANCE TR-FRET enzymatic assay; type: biochemical; details: read-out: JAK2 IC50
Sequence of hJAK2 (O60674 whole entry): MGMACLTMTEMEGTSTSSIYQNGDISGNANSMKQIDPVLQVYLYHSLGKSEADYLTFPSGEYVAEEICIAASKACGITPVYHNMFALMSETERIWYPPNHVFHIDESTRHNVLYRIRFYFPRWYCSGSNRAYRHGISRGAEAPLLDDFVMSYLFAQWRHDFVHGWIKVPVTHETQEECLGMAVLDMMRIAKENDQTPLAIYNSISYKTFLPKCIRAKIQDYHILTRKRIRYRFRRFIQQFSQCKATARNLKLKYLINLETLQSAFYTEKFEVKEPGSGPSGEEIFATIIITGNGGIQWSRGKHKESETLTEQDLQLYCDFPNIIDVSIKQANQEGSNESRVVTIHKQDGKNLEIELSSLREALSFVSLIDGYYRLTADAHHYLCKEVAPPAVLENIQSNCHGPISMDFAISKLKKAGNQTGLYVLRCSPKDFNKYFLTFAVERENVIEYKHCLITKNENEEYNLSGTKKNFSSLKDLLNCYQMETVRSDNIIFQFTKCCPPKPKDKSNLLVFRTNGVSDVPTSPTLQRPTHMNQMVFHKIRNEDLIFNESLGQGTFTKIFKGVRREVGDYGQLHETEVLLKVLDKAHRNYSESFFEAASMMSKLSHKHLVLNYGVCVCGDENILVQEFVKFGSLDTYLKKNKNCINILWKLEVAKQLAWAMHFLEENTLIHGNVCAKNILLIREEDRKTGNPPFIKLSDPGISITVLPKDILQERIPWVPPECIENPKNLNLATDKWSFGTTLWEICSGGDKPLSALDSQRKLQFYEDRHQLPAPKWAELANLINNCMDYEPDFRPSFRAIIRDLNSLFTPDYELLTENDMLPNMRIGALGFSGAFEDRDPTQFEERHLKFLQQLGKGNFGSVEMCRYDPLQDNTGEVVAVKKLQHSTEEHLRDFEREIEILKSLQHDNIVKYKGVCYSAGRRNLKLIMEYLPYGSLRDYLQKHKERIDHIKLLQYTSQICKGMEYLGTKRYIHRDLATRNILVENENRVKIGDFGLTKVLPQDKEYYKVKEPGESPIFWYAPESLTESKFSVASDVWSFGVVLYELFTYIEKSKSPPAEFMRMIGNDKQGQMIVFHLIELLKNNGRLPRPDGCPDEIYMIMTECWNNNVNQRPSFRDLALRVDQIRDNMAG

Sequence of IKKε (Q14164 whole entry): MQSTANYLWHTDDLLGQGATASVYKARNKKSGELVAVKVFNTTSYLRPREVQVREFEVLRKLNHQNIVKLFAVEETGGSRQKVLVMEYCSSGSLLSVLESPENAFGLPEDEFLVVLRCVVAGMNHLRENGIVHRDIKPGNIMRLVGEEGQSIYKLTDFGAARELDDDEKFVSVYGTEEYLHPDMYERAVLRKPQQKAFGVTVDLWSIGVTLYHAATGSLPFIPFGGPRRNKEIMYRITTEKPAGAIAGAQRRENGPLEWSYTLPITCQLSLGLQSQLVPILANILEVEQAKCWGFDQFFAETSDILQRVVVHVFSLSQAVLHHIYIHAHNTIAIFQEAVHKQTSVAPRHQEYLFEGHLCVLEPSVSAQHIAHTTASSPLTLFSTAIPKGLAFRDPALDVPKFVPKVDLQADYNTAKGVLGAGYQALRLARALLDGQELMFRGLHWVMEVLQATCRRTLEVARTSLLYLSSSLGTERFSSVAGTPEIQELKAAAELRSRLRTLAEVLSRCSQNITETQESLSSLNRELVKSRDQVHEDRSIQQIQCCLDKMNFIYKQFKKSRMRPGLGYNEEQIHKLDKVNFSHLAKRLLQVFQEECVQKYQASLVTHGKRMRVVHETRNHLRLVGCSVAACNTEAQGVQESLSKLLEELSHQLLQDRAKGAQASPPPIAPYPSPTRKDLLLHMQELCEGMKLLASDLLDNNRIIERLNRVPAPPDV
Sequence of TBK1 (Q9UHD2 whole entry): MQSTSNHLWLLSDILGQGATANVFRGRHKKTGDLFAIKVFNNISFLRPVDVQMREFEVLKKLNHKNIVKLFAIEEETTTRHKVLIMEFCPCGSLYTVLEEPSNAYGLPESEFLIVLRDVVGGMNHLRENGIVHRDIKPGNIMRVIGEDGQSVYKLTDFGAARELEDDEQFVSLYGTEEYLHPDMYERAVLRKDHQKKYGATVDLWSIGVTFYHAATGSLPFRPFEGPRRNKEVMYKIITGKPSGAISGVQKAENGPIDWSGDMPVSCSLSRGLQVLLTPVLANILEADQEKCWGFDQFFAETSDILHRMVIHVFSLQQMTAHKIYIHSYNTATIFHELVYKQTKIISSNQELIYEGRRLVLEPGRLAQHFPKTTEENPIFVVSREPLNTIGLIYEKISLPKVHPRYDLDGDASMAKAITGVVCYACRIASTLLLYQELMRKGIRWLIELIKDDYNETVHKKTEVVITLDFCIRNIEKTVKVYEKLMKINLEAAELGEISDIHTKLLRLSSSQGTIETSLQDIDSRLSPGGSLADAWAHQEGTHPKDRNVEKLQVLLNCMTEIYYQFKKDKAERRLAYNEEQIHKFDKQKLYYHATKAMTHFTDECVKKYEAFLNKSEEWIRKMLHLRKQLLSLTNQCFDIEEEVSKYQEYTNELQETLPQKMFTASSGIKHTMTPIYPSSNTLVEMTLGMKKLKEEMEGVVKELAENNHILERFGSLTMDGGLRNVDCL

| Compound | pIC50 (TBK1) | pIC50 (IKKε) | pIC50 (hJAK2) |
| --- | --- | --- | --- |
| 2-(((3R,4S)-1-((R)-4,4-difluoropyrrolidine-2-carbonyl)-3-fluoropiperidin-4-yl)oxy)-5-(4-((4-(4-(oxetan-3-yl)piperazin-1-yl)phenyl)amino)-1,3,5-triazin-2-yl)benzonitrile [Example 132] | 7.60 | 7.29 | 6.00 |
| 2-(((3R,4S)-3-fluoro-1-((S)-pyrrolidine-2-carbonyl)piperidin-4-yl)oxy)-5-(4-((4-(4-(oxetan-3-yl)piperazin-1-yl)phenyl)amino)-1,3,5-triazin-2-yl)benzonitrile [Example 133] | – | 6.00 | 6.00 |
| N#Cc1cc(-c2ncnc(Nc3cnn(C(F)F)c3)n2)ccc1O[C@H]1CCNC[C@H]1F [Example 453, 5-(4-((1-(difluoromethyl)-1H-pyrazol-4-yl)amino)-1,3,5-triazin-2-yl)-2-(((3R,4S)-3-fluoropiperidin-4-yl)oxy)benzonitrile] | 6.44 | – | – |

— patent US10253019B2, “Tank-binding kinase inhibitor compounds” (Gilead Sciences, Inc., priority 2014, dated 2019)
